Laboratory results published in PubChem BioAssay AID1963439 (Molecular Pharmacology Branch, DTP, NCI, 2024).

Test system: NCI-H196 complex spheroids with HUVEC/MSC, growth % T/C
Assay: Anticancer human tumor NCI-H196 cell line growth inhibition [Asc];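 further: spheroids exposed to compound for 7 days before measurement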;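 on viability, T/C: 100% = DMSO vehicle control wells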
Settings: for IC50: curve of first compound; for viability, T/C: stronger effect = lower value
Summary of the method: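 Complex solid-tumor spheroids incorporating human endothelial and mesenchymal stem cells received single agents or combinations over half-log dilution ranges anchored to clinical Cmax.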

[1] = second compound 0.1 µM, first compound 0.00316 µM
[2] = second compound 0.1 µM, first compound 0.01 µM
[3] = second compound 0.1 µM, first compound 0.0316 µM
[4] = second compound 0.1 µM, first compound 0.1 µM
[5] = second compound 0.1 µM, first compound 0.316 µM
[6] = second compound 0.1 µM, first compound 1 µM
[7] = second compound 0.316 µM, first compound 0.00316 µM
[8] = second compound 0.316 µM, first compound 0.01 µM
[9] = second compound 0.316 µM, first compound 0.0316 µM
[10] = second compound 0.316 µM, first compound 0.1 µM
[11] = second compound 0.316 µM, first compound 0.316 µM
[12] = second compound 0.316 µM, first compound 1 µM
[13] = second compound 1 µM, first compound 0.00316 µM
[14] = second compound 1 µM, first compound 0.01 µM
[15] = second compound 1 µM, first compound 0.0316 µM
[16] = second compound 1 µM, first compound 0.1 µM
[17] = second compound 1 µM, first compound 0.316 µM
[18] = second compound 1 µM, first compound 1 µM
[19] = second compound 3.16 µM, first compound 0.00316 µM
[20] = second compound 3.16 µM, first compound 0.01 µM
[21] = second compound 3.16 µM, first compound 0.0316 µM
[22] = second compound 3.16 µM, first compound 0.1 µM
[23] = second compound 3.16 µM, first compound 0.316 µM
[24] = second compound 3.16 µM, first compound 1 µM
[25] = second compound 10 µM, first compound 0.00316 µM
[26] = second compound 10 µM, first compound 0.01 µM
[27] = second compound 10 µM, first compound 0.0316 µM
[28] = second compound 10 µM, first compound 0.1 µM
[29] = second compound 10 µM, first compound 0.316 µM
[30] = second compound 10 µM, first compound 1 µM

Structure (SMILES)	IC50 (second compound 0.1 µM) [nM]	IC50 (second compound 0.316 µM) [nM]	IC50 (second compound 1 µM) [nM]	IC50 (second compound 3.16 µM) [nM]	IC50 (second compound 10 µM) [nM]	viability, T/C [1] [%]	viability, T/C [2] [%]	viability, T/C [3] [%]	viability, T/C [4] [%]	viability, T/C [5] [%]	viability, T/C [6] [%]	viability, T/C [7] [%]	viability, T/C [8] [%]	viability, T/C [9] [%]	viability, T/C [10] [%]	viability, T/C [11] [%]	viability, T/C [12] [%]	viability, T/C [13] [%]	viability, T/C [14] [%]	viability, T/C [15] [%]	further results
CCN1CCN(Cc2ccc(Nc3ncc(F)c(-c4cc(F)c5nc(C)n(C(C)C)c5c4)n3)nc2)CC1 + Cc1c(S(C)(=O)=O)c(-c2cc(F)cc(N3CCN(c4ccc(NS(=O)(=O)c5ccc(NC(CCN6CCC(C(=O)OCCCP(=O)(O)O)CC6)CSc6ccccc6)c(S(=O)(=O)C(F)(F)F)c5)cc4)CC3)c2)c(-c2ccc(Cl)cc2)n1C(C)C	> 1000	> 1000	> 1000	> 1000	> 1000	101	95.4	101	104	102	109	94.1	102	92.6	104	104	113	92.2	91.7	92.2	viability, T/C [16]: 102%; viability, T/C [17]: 104%; viability, T/C [18]: 105%; viability, T/C [19]: 90.2%; viability, T/C [20]: 88.8%; viability, T/C [21]: 80.1%; viability, T/C [22]: 85.3%; viability, T/C [23]: 93.1%; viability, T/C [24]: 86%; viability, T/C [25]: 77.2%; viability, T/C [26]: 76.2%; viability, T/C [27]: 81.4%; viability, T/C [28]: 83.6%; viability, T/C [29]: 86.2%; viability, T/C [30]: 80.8%
O=C(c1ccc(F)c(F)c1Nc1ccc(I)cc1F)N1CC(O)([C@@H]2CCCCN2)C1 + Cc1c(S(C)(=O)=O)c(-c2cc(F)cc(N3CCN(c4ccc(NS(=O)(=O)c5ccc(NC(CCN6CCC(C(=O)OCCCP(=O)(O)O)CC6)CSc6ccccc6)c(S(=O)(=O)C(F)(F)F)c5)cc4)CC3)c2)c(-c2ccc(Cl)cc2)n1C(C)C	> 1000	> 1000	> 1000	> 1000	> 1000	103	104	108	102	117	125	99	96.1	88.6	97.4	105	117	84.9	89.1	93.9	viability, T/C [16]: 106%; viability, T/C [17]: 108%; viability, T/C [18]: 117%; viability, T/C [19]: 79.8%; viability, T/C [20]: 87.3%; viability, T/C [21]: 87.8%; viability, T/C [22]: 85.4%; viability, T/C [23]: 102%; viability, T/C [24]: 106%; viability, T/C [25]: 74.5%; viability, T/C [26]: 85.8%; viability, T/C [27]: 81.2%; viability, T/C [28]: 83%; viability, T/C [29]: 90.6%; viability, T/C [30]: 97%
